Reference: patent US6777229B1, “Plasmids from Corynebacterium glutamicum and use thereof” (Degussa AG, priority 1999, dated 2004)

Tests used:
Assay in all cases: Minimum inhibition concentration, NCCLS Approved Standard M7-A4 dilution test
Format in all cases: cell-based
[1] = test system: Corynebacterium glutamicum ATCC13032; details: strain ATCC13032 (sensitive control), MÜLLER-HINTON bouillon
From the text: (§1) In order to identify antibiotic resistance genes on new plasmids, the strain to be investigated, in the present case Corynebacterium glutamicum LP-6, and a sensitive control strain, in the present case Corynebacterium glutamicum ATCC13032, are initially tested for resistance or sensitivity to various antibiotics and concentrations of antibiotics. […] Using the method of “Approved Standard M7-A4”, it is possible to determine inhibition concentrations and thus to ascertain the resistance of the investigated strain of bacteria.
(§2) In order to identify antibiotic resistance regions on the novel plasmids pTET3 or pCRY4, the resistant test strain Corynebacterium glutamicum LP-6 and the sensitive control strain Corynebacterium glutamicum ATCC13032 were initially cultured in the presence and absence of various antibiotics and antibiotic concentrations in accordance with the experimental method of the National Committee of Clinical Laboratory Standards (National Committee of Clinical Laboratory Standards, Methods for dilution antimicrobial susceptibility tests for bacteria that grow aerobically; Approved Standard, M7-A4 (1997)). The antibiotics required for this test, inter alia the antibiotics tetracycline, spectinomycin, streptomycin and sulfamethoxazole, were obtained from Sigma-Aldrich Chemie GmbH (Deisenhofen, Germany) and used in the concentrations stated in “Approved Standard M7-A4”. The nutrient medium required for this test, “MÖLLER-HINTON bouillon” was obtained from Merck KGaA (Darmstadt, Germany) and used in accordance with the manufacturer's instructions. Using the method of “Approved Standard M7-A4”, it is possible to determine inhibition concentrations (Table 1) and to identify the resistance of the bacterial strain Corynebacterium glutamicum LP-6 to the antibiotics tetracycline, spectinomycin, streptomycin and sulfamethoxazole. Plasmid DNA isolated from Corynebacterium glutamicum LP-6 using an alkaline lysis method (“NucleoBond Nucleic Acid Purification Kits and Cartridges User Manual (PT3167-1)”, Clonetech Laboratories GmbH, Heidelberg, Germany, 1997) was then transferred with electrical assistance into Corynebacterium glutamicum ATCC13032. Selection was performed directly for the presence of the identified tetracycline resistance in the primary selection on LB agar containing 5 μg/ml of tetracycline. […] The transformed strain was named Corynebacterium glutamicum ATCC13032 [pTET3].

[2] = test system: Corynebacterium glutamicum LP-6; details: strain LP-6 (resistant test strain)
From the text: as §1, §2

[3] = test system: Corynebacterium glutamicum ATCC13032 [pTET3]; details: strain ATCC13032 [pTET3]
From the text: In order to identify antibiotic resistance genes on new plasmids, the strain to be investigated, in the present case Corynebacterium glutamicum LP-6, and a sensitive control strain, in the present case Corynebacterium glutamicum ATCC13032, are initially tested for resistance or sensitivity to various antibiotics and concentrations of antibiotics. The National Committee of Clinical Laboratory Standards (NCCLS) experimental procedure is preferably used for this purpose (“Methods for dilution antimicrobial susceptibility tests for bacteria that grow aerobically”, fourth edition; Approved Standard, M7-A4, NCCLS 17(2), (1997)). Using the method of “Approved Standard M7-A4”, it is possible to determine inhibition concentrations and thus to ascertain the resistance of the investigated strain of bacteria.
The plasmid to be investigated, in the present case pTET3, is then isolated from strain LP-6 as described above and used to transform a suitable control or indicator strain, in the present case strain ATCC13032. Methods for transforming coryneform bacteria are described, for example, in Thierbach et al. ([…] 29, 356-362 (1988)), in Liebl et al. (FEMS Microbiology Letters 65, 299-304 (1989)) or in Dunican et al. (Bio/Technology 7, 1067-1070 (1989)). Selection is performed on conventional, complex nutrient media, such as for example brain-heart bouillon or Luria-Bertani medium, which are supplemented with the appropriate antibiotics. The antibiotic and the concentration thereof for this selection process is determined on the basis of the above-mentioned “Approved Standard, M7-A4”. In this manner, strain ATCC13032[pTET3], is obtained by selection for tetracycline resistance. The resistance/sensitivity of strain ATCC13032[pTET3) and of the control strain ATCC13032 is then investigated using the above-mentioned method, yielding the result that strain ATCC13032[pTET3] is resistant to the antibiotics tetracycline, streptomycin, spectinomycin and sulfamethoxazole.
In order to identify antibiotic resistance regions on the novel plasmids pTET3 or pCRY4, the resistant test strain Corynebacterium glutamicum LP-6 and the sensitive control strain Corynebacterium glutamicum ATCC13032 were initially cultured in the presence and absence of various antibiotics and antibiotic concentrations in accordance with the experimental method of the National Committee of Clinical Laboratory Standards (National Committee of Clinical Laboratory Standards, Methods for dilution antimicrobial susceptibility tests for bacteria that grow aerobically; Approved Standard, M7-A4 (1997)). […]

Row | Compound | Minimum inhibition concentration [1] | Minimum inhibition concentration [2] | Minimum inhibition concentration [3]
1 | CN(C)[C@@H]1C(O)=C(C(N)=O)C(=O)[C@@]2(O)C(O)=C3C(=O)c4c(O)cccc4[C@@](C)(O)[C@H]3C[C@@H]12 [Tetracycline] | ≦0.75 μg of antibiotic per ml | ≦12 μg of antibiotic per ml | ≦12 μg of antibiotic per ml
2 | CN[C@@H]1[C@H](O)[C@H](NC)[C@H]2O[C@@]3(O)C(=O)C[C@@H](C)O[C@H]3O[C@@H]2[C@H]1O [Spectinomycin] | ≦50 μg of antibiotic per ml | >2000 μg of antibiotic per ml | >2000 μg of antibiotic per ml
3 | [H]/N=C(/N)N[C@H]1[C@H](O)[C@@H](O)[C@H](O[C@@H]2O[C@@H](C)[C@](O)(C=O)[C@H]2O[C@@H]2O[C@@H](CO)[C@H](O)[C@@H](O)[C@@H]2NC)[C@@H](N/C(N)=N\[H])[C@@H]1O [Streptotmycin] | ≦0.5 μg of antibiotic per ml | ≦100 μg of antibiotic per ml | ≦100 μg of antibiotic per ml
4 | Cc1cc(NS(=O)(=O)c2ccc(N)cc2)no1 [Sulfamethoxazole] | ≦150 μg of antibiotic per ml | ≦300 μg of antibiotic per ml | ≦300 μg of antibiotic per ml
